Assays:
THP-1 = assay: Antiproliferative activity against human THP-1 cells assessed as inhibition of cell growth measured after 7 days by cell-titer glo assay; format: functional, cell-based; details: THP-1, 168 h
[1] = target: Lysine-specific histone demethylase 1A (Homo sapiens, UniProt O60341); assay: Inhibition of human recombinant LSD1 (852 residues) incubated for 1 hr by HTRF method
MV4-11 = assay: Antiproliferative activity against human MV4-11 cells assessed as inhibition of cell growth measured after 7 days by cell-titer glo assay; format: functional, cell-based; details: MV4-11, 168 h
HL-60 = assay: Antiproliferative activity against human HL-60 cells assessed as inhibition of cell growth measured after 7 days by cell-titer glo assay; format: functional, cell-based; details: HL-60, 168 h
[2] = target: Voltage-gated inwardly rectifying potassium channel KCNH2 (Homo sapiens, UniProt Q12809); assay: Inhibition of human ERG by whole cell patch clamp assay; format: toxicity
Chain of Voltage-gated inwardly rectifying potassium channel KCNH2 (Q12809 whole entry): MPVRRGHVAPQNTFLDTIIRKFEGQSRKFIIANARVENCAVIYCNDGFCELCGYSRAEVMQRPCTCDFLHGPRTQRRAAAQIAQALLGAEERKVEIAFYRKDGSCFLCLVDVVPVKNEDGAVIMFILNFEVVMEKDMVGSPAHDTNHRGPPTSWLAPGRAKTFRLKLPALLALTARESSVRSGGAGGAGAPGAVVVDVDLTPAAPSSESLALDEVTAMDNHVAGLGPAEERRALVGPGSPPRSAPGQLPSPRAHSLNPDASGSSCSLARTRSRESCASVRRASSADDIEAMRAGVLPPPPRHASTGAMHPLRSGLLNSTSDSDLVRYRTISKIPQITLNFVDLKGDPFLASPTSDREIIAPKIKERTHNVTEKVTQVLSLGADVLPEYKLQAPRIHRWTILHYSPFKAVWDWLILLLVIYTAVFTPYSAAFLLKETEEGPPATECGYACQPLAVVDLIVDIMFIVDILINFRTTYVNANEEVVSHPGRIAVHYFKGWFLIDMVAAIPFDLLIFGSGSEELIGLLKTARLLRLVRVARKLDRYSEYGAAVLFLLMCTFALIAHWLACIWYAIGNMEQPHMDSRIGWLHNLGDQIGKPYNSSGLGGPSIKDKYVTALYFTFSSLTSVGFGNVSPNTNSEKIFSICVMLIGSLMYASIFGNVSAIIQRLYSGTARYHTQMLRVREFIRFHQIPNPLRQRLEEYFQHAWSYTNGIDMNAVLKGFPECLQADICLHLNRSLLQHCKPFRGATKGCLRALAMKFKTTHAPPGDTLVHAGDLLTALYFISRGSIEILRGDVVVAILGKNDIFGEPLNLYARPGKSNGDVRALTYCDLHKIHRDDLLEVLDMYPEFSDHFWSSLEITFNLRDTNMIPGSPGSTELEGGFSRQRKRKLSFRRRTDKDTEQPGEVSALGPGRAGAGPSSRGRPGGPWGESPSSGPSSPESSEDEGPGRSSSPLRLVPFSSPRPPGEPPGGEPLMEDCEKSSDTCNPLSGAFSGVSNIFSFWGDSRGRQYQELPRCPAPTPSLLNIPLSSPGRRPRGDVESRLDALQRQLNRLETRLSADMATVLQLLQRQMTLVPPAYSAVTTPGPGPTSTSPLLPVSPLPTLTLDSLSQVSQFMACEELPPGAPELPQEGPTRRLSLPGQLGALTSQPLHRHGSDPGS

Row | SMILES | IC50 (THP-1) [µM] | IC50 [1] [µM] | IC50 (MV4-11) [µM] | IC50 (HL-60) [µM] | IC50 [2] [µM]
1 | O=C(Cc1ccccc1)n1ncc2cc(-n3cc(CN[C@@H]4C[C@H]4c4ccc(F)c(F)c4)nn3)ccc21 | 8.32 | 0.0156 | 7.84 | 2.83 | 
2 | CC(C)C(=O)n1ncc2cc(-n3cc(CN[C@@H]4C[C@H]4c4ccc(F)c(F)c4)nn3)ccc21 | 3.59 | 0.00997 | 3.89 | 3.42 | 
3 | O=C(C1CCC1)n1ncc2cc(-n3cc(CN[C@@H]4C[C@H]4c4ccc(F)c(F)c4)nn3)ccc21 | 10.9 | 0.0155 | 5.51 | 6.12 | 
4 | COc1cc2[nH]ncc2cc1-n1cc(CN[C@@H]2C[C@H]2c2ccc(F)c(F)c2)nn1 | 12.6 | 0.00346 | 8.74 | 10.9 | 
5 | Fc1ccc([C@@H]2C[C@H]2NCc2cn(-c3ccc4c(cnn4CC(F)(F)F)c3)nn2)cc1F | 5.01 | 0.00159 | 10.9 | 1.86 | 
6 | CCC(=O)n1ncc2cc(-n3cc(CN[C@@H]4C[C@H]4c4ccc(F)c(F)c4)nn3)ccc21 | 7.29 | 0.0116 | 2.56 | 1.53 | 
7 | Fc1ccc([C@@H]2C[C@H]2NCc2cn(-c3cccc4[nH]ncc34)nn2)cc1F | 3.95 | 0.00663 | 12.5 | 15.5 | 
8 | CCn1ncc2cc(-n3cc(CN[C@@H]4C[C@H]4c4ccc(F)c(F)c4)nn3)ccc21 | 6.52 | 0.0038 | 3.52 | 7.83 | 
9 | Fc1ccc([C@@H]2C[C@H]2NCc2cn(-c3cnc4[nH]ncc4c3)nn2)cc1F |  | 0.0209 |  |  | 
10 | CCS(=O)(=O)n1ncc2cc(-n3cc(CN[C@@H]4C[C@H]4c4ccc(F)c(F)c4)nn3)ccc21 | 4.59 | 0.00777 | 11.5 | 6.81 | 
11 | Fc1ccc([C@@H]2C[C@H]2NCc2cn(-c3ccc4c(cnn4Cc4ccccc4)c3)nn2)cc1F | 1.67 | 0.00828 | 4.08 | 3.83 | 
12 | O=C(C1CCCCC1)n1ncc2cc(-n3cc(CN[C@@H]4C[C@H]4c4ccc(F)c(F)c4)nn3)ccc21 | 5.57 | 0.0159 | 9.67 | 3 | 
13 | Cn1ncc2cc(-n3cc(CN[C@@H]4C[C@H]4c4ccc(F)c(F)c4)nn3)ccc21 | 4.52 | 0.00462 | 17.1 | 2.49 | 
14 | O=C(c1ccccc1)n1ncc2cc(-n3cc(CN[C@@H]4C[C@H]4c4ccc(F)c(F)c4)nn3)ccc21 | 12.9 | 0.00755 | 6.3 | 2.81 | 
15 | Fc1ccc([C@@H]2C[C@H]2NCc2cn(-c3n[nH]c4ccccc34)nn2)cc1F | > 25 | 0.0051 | > 25 | > 25 | 
16 | CC(=O)n1ncc2cc(-n3cc(CN[C@@H]4C[C@H]4c4ccc(F)c(F)c4)nn3)ccc21 | 5.4 | 0.0084 | 3.87 | 4.22 | 
17 | Fc1ccc([C@@H]2C[C@H]2NCc2cn(CCc3ccc4[nH]ncc4c3)nn2)cc1F |  | 0.0579 |  |  | 
18 | Fc1ccc([C@@H]2C[C@H]2NCc2cn(-c3ccc4cn[nH]c4c3)nn2)cc1F | 3.76 | 0.0144 | > 25 | > 25 | 
19 | Cc1cc2[nH]ncc2cc1-n1cc(CN[C@@H]2C[C@H]2c2ccc(F)c(F)c2)nn1 | 5.7 | 0.0111 | 6.28 | 4.11 | 
20 | CS(=O)(=O)n1ncc2cc(-n3cc(CN[C@@H]4C[C@H]4c4ccc(F)c(F)c4)nn3)ccc21 | 24.3 | 0.0146 | 3.31 | 2.41 | 
21 | O=S(=O)(C1CCCCC1)n1ncc2cc(-n3cc(CN[C@@H]4C[C@H]4c4ccc(F)c(F)c4)nn3)ccc21 | 2.41 | 0.00482 | 4.33 | 1.88 | 
22 | Fc1ccc([C@@H]2C[C@H]2NCc2cn(-c3ccc4[nH]ncc4c3)nn2)cc1F |  |  |  |  | 0.61
23 | Fc1ccc([C@@H]2C[C@H]2NCc2cn(Cc3ccc4[nH]ncc4c3)nn2)cc1F | 6.34 | 0.0115 | 6.56 | 2.47 | 
24 | Fc1ccc([C@@H]2C[C@H]2NCc2cn(-c3cc4cn[nH]c4cc3F)nn2)cc1F | 7.5 | 0.00645 | 6.86 | 7.44 | 
25 | O=C(C1CCCC1)n1ncc2cc(-n3cc(CN[C@@H]4C[C@H]4c4ccc(F)c(F)c4)nn3)ccc21 | 8.37 | 0.012 | 8.25 | 3.44 | 
26 | O=S(=O)(C1CC1)n1ncc2cc(-n3cc(CN[C@@H]4C[C@H]4c4ccc(F)c(F)c4)nn3)ccc21 | 3.39 | 0.0043 | 6.32 | 5.57 | 
27 | O=C(C1CC1)n1ncc2cc(-n3cc(CN[C@@H]4C[C@H]4c4ccc(F)c(F)c4)nn3)ccc21 | 5.94 | 0.0123 | 2.61 | 5.5 | 
28 | Fc1ccc([C@@H]2C[C@H]2NCc2cn(-c3ccc4c(cnn4C4CCCC4)c3)nn2)cc1F | 3.88 | 0.00414 | 2.86 | 4.05 | 

Reference: ChEMBL document CHEMBL6134819, “Discovery of novel tranylcypromine-indazole-based derivatives as LSD1 inhibitors for acute myeloid leukemia treatment” (Eur J Med Chem, 2025)
